Test results from PubChem BioAssay (NCI).
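1) Cells in 96-well plates. 2) Compound, 48 h, 5 concentrations. 3) Linear interpolation between surrounding doses. 4) Unreached endpoint = highest concentration. GI50 marks 50% less growth. TGI is the concentration that stops growth completely.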

What was measured:
Assay in all cases: inhibition of tumour cell growth, NCI panel, 48 h
[1] = tested on: 786-0 renal
[2] = tested on: A498 renal
[3] = tested on: A549 NSCLC
[4] = tested on: ACHN renal
[5] = tested on: BT-549 breast
[6] = tested on: CAKI-1 renal
[7] = tested on: CCRF-CEM leukemia
[8] = tested on: COLO 205 colon
[9] = tested on: DU-145 prostate
[10] = tested on: EKVX NSCLC
[11] = tested on: HCC-2998 colon
[12] = tested on: HCT-116 colon
[13] = tested on: HCT-15 colon
[14] = tested on: HL-60(TB) leukemia
[15] = tested on: HOP-62 NSCLC
[16] = tested on: HOP-92 NSCLC
[17] = tested on: HS 578T breast
[18] = tested on: HT29 colon
[19] = tested on: IGROV1 ovarian
[20] = tested on: K-562 leukemia
[21] = tested on: KM12 colon
[22] = tested on: LOX IMVI melanoma
[23] = tested on: M14 melanoma
[24] = tested on: MALME-3M melanoma
[25] = tested on: MCF7 breast
[26] = tested on: MDA-MB-231 breast
[27] = tested on: MDA-MB-435
[28] = tested on: MOLT-4 leukemia
[29] = tested on: NCI-H226 lung
[30] = tested on: NCI-H23 lung
[31] = tested on: NCI-H460 lung
[32] = tested on: NCI-H522 lung
[33] = tested on: NCI/ADR-RES ovarian
[34] = tested on: OVCAR-3 ovarian
[35] = tested on: OVCAR-4 ovarian
[36] = tested on: OVCAR-5 ovarian
[37] = tested on: OVCAR-8 ovarian
[38] = tested on: PC-3 prostate
[39] = tested on: RPMI-8226 leukemia
[40] = tested on: RXF 393 renal
[41] = tested on: SF-268 CNS
[42] = tested on: SF-295 CNS
[43] = tested on: SF-539 CNS
[44] = tested on: SK-MEL-2 melanoma
[45] = tested on: SK-MEL-28 melanoma
[46] = tested on: SK-MEL-5 melanoma
[47] = tested on: SK-OV-3 ovarian
[48] = tested on: SN12C renal
[49] = tested on: SNB-19 CNS
[50] = tested on: SNB-75 CNS
[51] = tested on: SR leukemia
[52] = tested on: SW-620 colon
[53] = tested on: T-47D breast
[54] = tested on: TK-10 renal
[55] = tested on: U251 CNS
[56] = tested on: UACC-257 melanoma
[57] = tested on: UACC-62 melanoma
[58] = tested on: UO-31 renal

`CN1CCN(Cc2ccc(NC(=O)c3cncc(C#Cc4cnc5ccc(N6CCN(C)CC6)nn45)c3)cc2C(F)(F)F)CC1` gave a GI50 [1] of 1550 nM, a TGI [1] of 3110 nM and a GI50 [2] of 2130 nM. It also gave a TGI [2] of 3610 nM, a GI50 [3] of 1620 nM and a TGI [3] of 3910 nM. The GI50 [4] was 1330 nM, the TGI [4] was 2620 nM and the GI50 [5] was 1440 nM. The TGI [5] was 2880 nM, the GI50 [6] was 1670 nM and the TGI [6] was 3280 nM. The GI50 [7] was 1940 nM, the TGI [7] was 6470 nM and the GI50 [8] was 1580 nM. For the same molecule, the TGI [8] was 3630 nM, the GI50 [9] was 1590 nM and the TGI [9] was 2940 nM. For the same molecule, the GI50 [10] was 1300 nM, the TGI [10] was 2840 nM and the GI50 [11] was 1640 nM. The TGI [11] was 3050 nM, the GI50 [12] was 1050 nM and the TGI [12] was 2620 nM. The GI50 [13] was 1430 nM, the TGI [13] was 3370 nM and the GI50 [14] was 2180 nM. For the same molecule, the TGI [14] was 4110 nM, the GI50 [15] was 2060 nM and the TGI [15] was 7020 nM. For the same molecule, the GI50 [16] was 1340 nM, the TGI [16] was 8480 nM and the GI50 [17] was 1710 nM. The TGI [17] was 6570 nM, the GI50 [18] was 1180 nM and the TGI [18] was 3430 nM. For the same molecule, the GI50 [19] was 1750 nM, the TGI [19] was 4160 nM and the GI50 [20] was 57.6 nM. The TGI [20] was 1630 nM, the GI50 [21] was 29.2 nM and the TGI [21] was 1390 nM. The GI50 [22] was 1160 nM, the TGI [22] was 2420 nM and the GI50 [23] was 1580 nM. The TGI [23] was 3240 nM, the GI50 [24] was 2570 nM and the TGI [24] was 11200 nM. The GI50 [25] was 835 nM, the TGI [25] was 2400 nM and the GI50 [26] was 751 nM. It also gave a TGI [26] of 2350 nM, a GI50 [27] of 1410 nM and a TGI [27] of 3060 nM. The GI50 [28] was 1330 nM, the TGI [28] was 3510 nM and the GI50 [29] was 436 nM. The TGI [29] was 10700 nM, the GI50 [30] was 1370 nM and the TGI [30] was 2960 nM. It also gave a GI50 [31] of 1870 nM, a TGI [31] of 4050 nM and a GI50 [32] of 1440 nM. It also gave a TGI [32] of 2960 nM, a GI50 [33] of 1810 nM and a TGI [33] of 3640 nM. It also gave a GI50 [34] of 2150 nM, a TGI [34] of 4110 nM and a GI50 [35] of 1230 nM. The TGI [35] was 3010 nM, the GI50 [36] was 1830 nM and the TGI [36] was 4220 nM. It also gave a GI50 [37] of 1760 nM, a TGI [37] of 3630 nM and a GI50 [38] of 1660 nM. For the same molecule, the TGI [38] was 5100 nM, the GI50 [39] was 2050 nM and the TGI [39] was 7410 nM. It also gave a GI50 [40] of 786 nM, a TGI [40] of 2080 nM and a GI50 [41] of 1530 nM. The TGI [41] was 3200 nM, the GI50 [42] was 1470 nM and the TGI [42] was 2980 nM. For the same molecule, the GI50 [43] was 414 nM, the TGI [43] was 1740 nM and the GI50 [44] was 10700 nM. The TGI [44] was 23300 nM, the GI50 [45] was 11900 nM and the TGI [45] was 24400 nM. The GI50 [46] was 1530 nM, the TGI [46] was 2910 nM and the GI50 [47] was 15000 nM. The TGI [47] was 30700 nM, the GI50 [48] was 1150 nM and the TGI [48] was 2560 nM. The GI50 [49] was 2290 nM, the TGI [49] was 4630 nM and the GI50 [50] was 1490 nM. It also gave a TGI [50] of 2950 nM, a GI50 [51] of 781 nM and a TGI [51] of 2920 nM. For the same molecule, the GI50 [52] was 2120 nM, the TGI [52] was 6990 nM and the GI50 [53] was 18000 nM. For the same molecule, the TGI [53] was 41800 nM, the GI50 [54] was 2060 nM and the TGI [54] was 4290 nM. It also gave a GI50 [55] of 1660 nM, a TGI [55] of 3320 nM and a GI50 [56] of 4980 nM. The TGI [56] was 18800 nM, the GI50 [57] was 14500 nM and the TGI [57] was 27800 nM. The GI50 [58] was 3750 nM and the TGI [58] was 14500 nM.
